Source: US8987189B2, “Treating hepatitis C virus infection” (Board of Regents, The University of Texas System, priority 2007, dated 2015)

Key:
genotype 2a HCV = assay: HCV release assay in Huh7-GL cells (HCV RNA copy number and titer in medium, intracellular HCV RNA); format: cell-based, hepatitis C virus; conditions: for cellular release of virus (HCV RNA copy numbers and titers in the media): Huh7-GL cells, 1 nM, 10 nM, 100 nM and 500 nM, 16 hr then 4 hours in serum-free medium
Description: (§1) Huh7-GL cells were incubated in the absence or presence of the MTP inhibitor […]. Following incubation in serum-free medium, culture medium was harvested and the amount of HCV RNA, HCV titer, and apoB in the medium was measured.
Huh7-GL cells are cultured as described in Example 2. On day 1, the cells are treated with 1 nM, 10 nM, 100 nM, and 500 nM of the following MTP inhibitors: BMS-201038 (positive control), BMS-200150, BMS-212122, BMS-197636, JTT-130, Implitapide, mitratapide, and CP-346086. 16 hr later on day 2, cells are switched to serum-free medium in the absence or presence of the same amount of the MTP inhibitor.

apoB = apoB mRNA and apoB secretion in Huh7-GL cells; format: cell-based, human; conditions: Huh7-GL cells incubated with MTP inhibitor, serum-free medium
Description: We transfected Huh7-GL cells, a line of Huh7 cells that contain a chromosomally integrated genotype 2a HCV cDNA and constitutively produce infectious virus (Cai et al., 2005), with a duplex siRNA targeting apoB or GFP as a control. Following incubation in serum-free medium, culture medium was harvested and the amount of apoB and HCV in the medium was analyzed. […] In control cells transfected with the GFP siRNA, the HCV copy number and titer increased by more than 10 fold during the period of 4-hr incubation. In cells receiving the apoB siRNA, this increase was reduced by about 50% as assayed by viral copy number, and 70% as assayed by the viral titer.
as §1

HCV = assay: Randomized, double-blind, placebo-controlled trial in patients with chronic HCV infection; conditions: 0.15 mg per kilogram twice daily, 12-week course
Description: Patients are recruited and are eligible for enrollment if they are positive for HCV RNA on serologic testing after at least 3 months of interferon therapy. Patients who can not tolerate interferon because of severe side effects, such as fatigue, neuropsychiatric disturbances, or thrombocytopenia, are also included.
Physicians and patients are blinded to treatment assignments. Patients are evaluated every 3 weeks for compliance, which is assessed by pill count, and for the development of adverse reactions. […] At each evaluation visit, a complete blood count is done and serum levels of electrolytes, blood urea nitrogen, creatinine, aspartate aminotransferase, alanine aminotransferase, albumin, and total bilirubin are measured. Titers of serum HCV RNA are assessed before enrollment, at each evaluation visit, and 6 weeks after the final dose by using a […] multicycle reverse transcription polymerase chain reaction method. Titers are calculated up to 5 million copies/mL; if a titer is greater than 5 million copies/mL, it is simply reported as such and the exact value is not given.

[1] = previous clinical trials; cited from earlier work
[2] = Huh7-GL cells incubated with MTP inhibitor vs absence of inhibitor

Compound	cellular release of virus (HCV RNA copy numbers and titers in the media) (genotype 2a HCV)	other results
implitapide	decreases in cellular release of virus	–
O=C(Nc1ccc2c(c1)CCN(Cc1ncn[nH]1)C2)c1ccccc1-c1ccc(C(F)(F)F)cc1 [CP-346086]	decreases in cellular release of virus	–
CCOC(=O)C(COC(=O)Cc1ccc(NC(=O)c2ccccc2-c2ccc(C(F)(F)F)cc2)c(C(=O)N(C)C)c1)(C(=O)OCC)c1ccccc1 [JTT-130]	decreases in cellular release of virus	–
CC[C@@H](C)n1ncn(-c2ccc(N3CCN(c4ccc(OC[C@@H]5CO[C@@](CSc6nncn6C)(c6ccc(Cl)cc6)O5)cc4)CC3)cc2)c1=O [mitratapide]	decreases in cellular release of virus	–
Cc1ccc2c(nc(C)n2CCCCC2(C(=O)NCC(F)(F)F)c3ccccc3-c3ccccc32)c1NC(=O)c1ccccc1-c1ccc(C(F)(F)F)cc1 [BMS-212122]	decreases in cellular release of virus	–
O=C1c2ccccc2CN1C1CCN(CCC(c2ccccc2)c2ccccc2)CC1 [BMS-200150]	decreases in cellular release of virus	–
O=C(NC1CCN(CCCCC2(C(=O)NCC(F)(F)F)c3ccccc3-c3ccccc32)CC1)c1ccccc1-c1ccc(C(F)(F)F)cc1 [BMS-201038]	decreases in cellular release of virus	secretion of apoB (apoB): blocked; intracellular HCV RNA (genotype 2a HCV; Huh7-GL cells in the absence or presence of the MTP inhibitor): remained the same; reduction of the amount of HCV RNA in the medium (genotype 2a HCV; [2]): about 80%; reduction of viral titer in the medium (genotype 2a HCV; [2]): about 80%; serum viremia (viral load, aminotransferase levels) (HCV): decrease in serum viremia; tolerability [1]: high tolerability
CCCNC(=O)C1(CCCCN2CCC(N3Cc4ccccc4C3=O)CC2)c2ccccc2-c2ccccc21 [BMS-197636]	decreases in cellular release of virus	–
